Patent US20020064883A1, “Measurement and quantification of 17 ketosteroid-sulfates as a biomarker of biological age” (priority 2000, published 2002)

Tested on: Anabolic/Catabolic Index (ACI)
Test: Human clinical trial: effect of treatment on urinary Anabolic/Catabolic Index (ACI)
Format: in vivo
Method: The concentration of 17-KS-S in the sample was calculated from the ratio of the peak area of the compound of interest to that of the external standard multiplied by its concentration. The concentration of creatinine in urine was measured by a colorimetric method. The urinary Anabolic/Catabolic Index (ACI=X/Y) was calculated as a ratio of total 17-ketosteroid sulfate concentration (X, ng/μL) to creatinine concentration (Y, μg/μL).
There were two objectives in this example. The first was to investigate the ACI-age relationship using baseline information of ACI and the second was to investigate effects of four treatment groups on ACI.
There were 71 individuals for treatment allocation. They were identified with a number of 1 through 72 (69 was not used). Of these 71 individuals, five (subject identification numbers=3, 22, 24, 26 and 65) were not included in the data set of ACI measurements. Consequently, there were 66 individuals represented in the ACI information. Among the 66 individuals, three (subject ID=1, 9 and 60) had only baseline measurements. These three individuals contributed to the analysis of age/ACI relationship only. Therefore, the data set for looking at treatment effects consisted of 63 individuals. Not all of the 63 individuals have six serial observations.
A 24-hour urine specimen was collected from each individual before treatment. The urine specimens were quickly aliquoted, frozen, and immediately shipped on dry ice by overnight service for analysis. A ratio of total 17-ketosteroid sulfate concentration (ng/μL) to creatinine concentration (mg/mL) was calculated and expressed as ACI. Subsequent to treatment urine specimens were collected and analyzed at 24 hours. […] The fitted line has a negative slope (estimate of the slope is −0.061239 and is statistically significant from zero with p-value being equal to 0.0034.). Pearson correlation is estimated to be −0.35510 (p=0.0034). These findings indicate that ACI level decreases with ages between 40 and 65.
This part of the analysis was performed to determine if any of three different treatments affect the ACI level. That is to check whether the ACI level changes under and after termination of treatment. There were four treatment groups, referred to as groups 1-4. The individuals in Group 1 were given a placebo. The individuals in Group 2 were treated with 7-keto DHEA (25 mg/day dosage). The individuals in Group 3 were treated with Longevity Signal Formula (LSV) (2.008 mg/day dosage). The individuals in Group 4 were treated with Longevity Signal Formula (LSV) and Renewal Herbal Formula (Renewal).
FIG. 5 illustrates the plots of the individual profile for each treatment group for weeks 1-5. Each individual's serial observations are connected with a line to emphasize the trend over time. Measurements at week zero represent ACI prior treatment. Measurements at weeks 1-4 represent the ACI level after receiving treatments for 1-4 weeks respectively. Measurements at week 5 represent the ACI level three days after termination of treatment. FIG. 6 plots the mean responses at each point in time plus two standard errors.

C[C@]12CC[C@H](O)CC1=CC(=O)[C@@H]1[C@@H]2CC[C@]2(C)C(=O)CC[C@@H]12 [7-keto DHEA]
Effect of treatment on ACI level (in words) (under treatment, weeks 1-4 vs baseline): does not change the ACI level at all | Mean of difference in ACI (week 1 − week 0 (week 0 = baseline; paired t-test)): −0.04 | Mean of difference in ACI (week 2 − week 0): 0.20 | Mean of difference in ACI (week 2 − week 1): 0.23 | Mean of difference in ACI (week 3 − week 0): −0.12 | Mean of difference in ACI (week 3 − week 1): −0.08 | Mean of difference in ACI (week 3 − week 2): −0.31 | Mean of difference in ACI (week 4 − week 0): −0.12 | Mean of difference in ACI (week 4 − week 1): −0.09 | Mean of difference in ACI (week 4 − week 2): −0.32 | Mean of difference in ACI (week 4 − week 3): −0.01 | Mean of difference in ACI (week 5 − week 0 (week 5 = three days after termination of treatment)): −0.10 | Mean of difference in ACI (week 5 − week 1): −0.07 | Mean of difference in ACI (week 5 − week 2): −0.30 | Mean of difference in ACI (week 5 − week 3): 0.01 | Mean of difference in ACI (week 5 − week 4): 0.02
